Columns and labels:
rat = test system: rat
Text: The chosen dose can be higher, as long as within the pharmacological range.

[1] = Hygroscopicity - Dynamic Vapor Sorption (DVS); type: physicochemical
Method: Hygroscopicity—Dynamic Vapor Sorption (DVS)
DVS is a gravimetric technique that measures how quickly and how much of a solvent (water) is sorbed by a sample. The relative humidity or vapor concentration surrounding the sample is varied while the change in mass of the sample is measured. […] The mass values at each relative humidity step are used to generate an isotherm. Isotherms are divided in two components: sorption for increasing humidity steps and desorption for decreasing humidity steps. A plot of kinetic data is also used to show the change in mass and humidity as a function of time.
The samples were analyzed using a TA Q5000 automated dynamic vapor sorption analyzer. The samples were dried at 60° C. over 180 minutes and then cooled to 25° C. with a dry nitrogen purge. The samples were then subjected to 0 to 90% RH, back to 10% RH at 25° C. in 10% RH steps.

[2] = Static vapor sorption studies; type: physicochemical; settings: Panel: Static humidity; 7 experiments
Text: Static Vapor Sorption Studies
Static vapor sorption studies were done in hermetic humidity chambers using saturated salts, or environmental humidity chambers to control the temperature and humidity. Data collected during dynamic vapor sorption studies often are not at thermodynamic equilibrium. To gain a better understanding of the water uptake and the critical humidity level of the API, samples of the starting material (i.e., Form A) were monitored in static humidity chambers to allow the sample to equilibrate with atmospheric moisture.
In these studies, water vapor sorption was determined gravimetrically by storing samples in open aluminum dishes. Compound I diphosphate salt lot was used for this study. Samples were stored at 7 different humidity levels at ambient temperature (Table 19). Approximately 50 mg of Form A was staged at each humidity condition. The samples were weighed before placing them in the chamber and then re-weighed after 3 weeks. After re-weighing, the samples were immediately analyzed by XRD to determine whether a change in form had occurred.
The sample stored at 11% RH was an outlier and was therefore omitted from the final isotherm plot. The static isotherm plot is roughly consistent with the DVS isotherm plot (FIG. 12F) with a large moisture uptake at around 40% RH and a maximum uptake between 4 and 5 weight percent.

clinical = settings: for AUC(0-t) / Cmax / Tmax: human
Method: The reference treatment i fasted condition for all comparisons.
Eight subjects in Cohort A3 participated in a 2-period treatment design in which they were assessed for the single-dose of drug substance in a Fasted condition and in a Fed condition. Subjects were to receive the same treatment (i.e., either drug substance or placebo) in both Period 1 and Period 2, and thus subjects would receive either two single doses of drug substance or two single doses of placebo during their participation in the study. Fasting state assessments occurred in Period 1 and Fed State assessments in Period 2. It was planned that an approximate 7-day washout would be needed between the Fast and Fed dosing periods. Note that PD assessments were not performed for the food effect Cohort A3.
Note that PD assessments were not performed for the Food Effect cohort.
For Part A Cohort A3, assessment of the food-effect was performed for the following PK parameters: • AUC0-last • Cmax • AUC0-inf

μ-opioid receptor = μ-opioid receptor (Rattus norvegicus, UniProt P33535)
[3] = 120 mg DS (Fed), single oral dose, plasma, N = 6
[4] = 120 mg DS, Fed versus Fasted, n = 6

Sequence of μ-opioid receptor (P33535 whole entry): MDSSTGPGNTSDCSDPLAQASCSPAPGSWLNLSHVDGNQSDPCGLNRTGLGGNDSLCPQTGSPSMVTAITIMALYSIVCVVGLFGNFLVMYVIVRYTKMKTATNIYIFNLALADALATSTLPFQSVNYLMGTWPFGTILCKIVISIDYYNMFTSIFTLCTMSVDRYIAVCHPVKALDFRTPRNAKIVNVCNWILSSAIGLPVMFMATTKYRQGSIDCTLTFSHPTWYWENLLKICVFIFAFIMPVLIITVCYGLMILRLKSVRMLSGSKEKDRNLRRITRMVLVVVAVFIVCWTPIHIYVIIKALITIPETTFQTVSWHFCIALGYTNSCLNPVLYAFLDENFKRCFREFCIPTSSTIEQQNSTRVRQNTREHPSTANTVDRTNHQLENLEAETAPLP

CN(C)C[C@H]1CN(CCc2ccsc2)CC[C@]1(O)c1cccc(C(N)=O)c1 [Compound I, 3-(3S, 4R)-3-((dimethylamino)methyl)-4-hydroxy-1-(2-(thiophen-3-yl)ethyl)piperidin-4-yl-benzamide]
NOAEL HED for 50 kg subject (rat): 485 mg
maximum moisture uptake [1]: approximately 10.5 wt %
hygroscopicity ([1]; in words, listed as Compound I free base): hygroscopic
No. of experiments giving Amorphous Form [2]: 0
No. of experiments giving Form A [2]: 7
No. of experiments with No solid recovered [2]: 0
GLSM ratio (90% CI) fed/fasted, AUC0-last (clinical; 120 mg): 0.801 (0.688, 0.933)
GLSM ratio (90% CI) fed/fasted, Cmax (clinical; 120 mg): 0.450 (0.238, 0.852)
reduction of AUC0-last by food (clinical; 120 mg): approximately 20%
reduction of peak concentrations by food (clinical; 120 mg): approximately 55%
Tlast (time of last measurable concentration), Median (clinical; [3]): 48.0 h
Tlast, Max (clinical; [3]): 48.0 h
Tlast, Min (clinical; [3]): 36.0 h
Tmax, Max (clinical; [3]): 6.02 h
Tmax, Min (clinical; [3]): 1.00 h
AUC0-last, Fed versus Fasted Ratio of GLSMs (clinical; [4]): 0.801
Cmax, Fed versus Fasted Ratio of GLSMs (clinical; [4]): 0.450
mean concentrations measurable through (clinical; 120 mg fed): 48 h
AUC(0-t) (clinical; plasma, oral, 120 mg, AUC0-last (zero to 24 hours postdose), GLSM, 120 mg DS (Fasted), n = 6): 202 ng·h/mL
AUC(0-t) (clinical; plasma, oral, 120 mg, AUC0-last (zero to 24 hours postdose), GLSM, 120 mg DS (Fed), n = 6): 162 ng·h/mL
Cmax (clinical; plasma, oral, 120 mg, GLSM (geometric least squares mean), 120 mg DS (Fasted), n = 6): 81.9 ng/mL
Cmax (clinical; plasma, oral, 120 mg, GLSM (geometric least squares mean), 120 mg DS (Fed), n = 6): 36.9 ng/mL
Tmax (clinical; plasma, oral, 120 mg, individual Tmax range, with food): 1 to 6 h
Tmax (clinical; plasma, oral, 120 mg, individual Tmax range, without food): 2 to 3 h
Tmax (clinical; plasma, oral, 120 mg, median Tmax, with food): 2.6 h
Tmax (clinical; plasma, oral, 120 mg, median Tmax, without food): 2.3 h
AUC(0-t) (clinical; plasma, po, 120 mg, AUC0-last (zero to 24 hours postdose), Mean, 120 mg DS (Fed), single oral dose, N = 6): 166 ng·h/mL
AUC(0-t) (clinical; plasma, po, 120 mg, AUC0-t (zero to the last quantifiable concentration), Mean, 120 mg DS (Fed), single oral dose, N = 6): 204 ng·h/mL
Cmax (clinical; plasma, po, 120 mg, Mean, 120 mg DS (Fed), single oral dose, N = 6): 45.2 ng/mL
Tmax (clinical; plasma, po, 120 mg, Tmax, Median, 120 mg DS (Fed), single oral dose, N = 6): 2.58 h
mediation of antinociceptive effect (μ-opioid receptor; in vivo): mediated exclusively by μ-opioid receptor
pain relief in preclinical models (μ-opioid receptor; preclinical models): comparable to Schedule 2 opiates
